# From patent US20080311126A1, “Antisense Oligonucleotides Directed to Ribonucleotide Reducatase R2 and Uses Thereof in Combination Therapies for the Treatment of Cancer” (Genesense Technologies, Inc, priority 2004, published 2008)
# Oligonucleotides are written 5' to 3', each unit as a sugar letter and its base; * is a phosphorothioate linkage, no mark a phosphodiester; rarer units and linkages stand in square brackets, end groups in braces. Plain capitals give the bases only. d = 2'-deoxy (DNA)
# Tests used:
# Assay type in all cases: cell-based, human
# [1] = system: T24 bladder cell carcinoma; experiment: Relative colony forming efficiency (Example 17, Table 13); settings: averages of 2-8 determinations
# How it was run: (§1)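 Phosphorothioate antisense oligonucleotides were delivered to tumour cell cultures with 2.5 μg DOTMA/DOPE (Lipofectin) over four hours, at 0.2 μM unless otherwise indicated. Surviving colonies were stained with methylene blue and scored. Values are % inhibition of colony formation relative to lipofectin-only controls.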
# [2] = system: MDA PaCa-2 pancreatic cell carcinoma; experiment: as above; settings: MIA PaCa-2 pancreatic cell carcinoma; averages of 2-8 determinations
# How it was run: as §1
# [3] = system: T-47D breast ductal carcinoma; experiment: as above; settings: averages of 2-8 determinations
# How it was run: as §1
# A549 lung cell carcinoma = experiment: as above; settings: averages of 2-8 determinations
# How it was run: as §1
# [4] = system: HCT116 colon cell carcinoma; experiment: as above; settings: averages of 2-8 determinations
# How it was run: as §1
# [5] = system: HepG2 hepatocellular carcinoma; experiment: as above; settings: averages of 2-8 determinations
# How it was run: as §1
# [6] = system: MDA-MB-231 breast cell adenocarcinoma; experiment: as above; settings: averages of 2-8 determinations
# How it was run: as §1
# [7] = system: PC-3 prostrate cell adenocarcinoma; experiment: as above; settings: averages of 2-8 determinations
# How it was run: as §1
# [8] = system: H596 lung adenosquamous carcinoma cells; experiment: as above; settings: averages of 2-8 determinations
# How it was run: as §1
# Hela S3 cells = experiment: Relative colony forming efficiency, lipofectin +/- oligonucleotide 4 hours; settings: Hela S3 cervix carcinoma cells; averages of 2-8 determinations
# How it was run: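 Survival is given as percent of lipofectin-treated controls, scored as methylene blue-stained colonies after 7–10 days of regrowth. Beforehand, HeLa S3 cultures received a 4 h lipofectin-mediated pulse of oligonucleotide, normally at 0.2 μM.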
Substance,"Reduced relative colony forming efficiency, T24 (% inhibition of colony forming ability) [1]","Reduced relative colony forming efficiency, MIA PaCa-2 (% inhibition of colony forming ability) [2]","Reduced relative colony forming efficiency, T-47D (% inhibition of colony forming ability) [3]","Reduced relative colony forming efficiency, A549 (% inhibition of colony forming ability) (A549 lung cell carcinoma)","Reduced relative colony forming efficiency, HCT116 (% inhibition of colony forming ability) [4]","Reduced relative colony forming efficiency, HepG2 (% inhibition of colony forming ability) [5]","Reduced relative colony forming efficiency, MDA-MB-231 (% inhibition of colony forming ability) [6]","Reduced relative colony forming efficiency, PC-3 (% inhibition of colony forming ability) [7]","Reduced relative colony forming efficiency, 11596 (% inhibition of colony forming ability) [8]","Reduced relative colony forming efficiency, Hela S3 (% inhibition of colony forming ability) (Hela S3 cells)"
CCTGTCTTCTATCTGGCACC (antisense dC*dC*dT*dG*dT*dC*dT*dT*dC*dT*dA*dT*dC*dT*dG*dG*dC*dA*dC*dC) [AS-II-1989-20],77.43%,70.22%,90.83%,83.9%,78.47%,80.7%,54.9%,77.38%,56.33%,61.41%
GGCGACCCCTCACTCCAGCA (antisense dG*dG*dC*dG*dA*dC*dC*dC*dC*dT*dC*dA*dC*dT*dC*dC*dA*dG*dC*dA) [AS-II-114-20],87.45%,90.05%,90.83%,83.51%,86.1%,78.72%,76.22%,92.66%,46.3%,79.25%
CCCCTTCAGCGGCG (antisense dC*dC*dC*dC*dT*dT*dC*dA*dG*dC*dG*dG*dC*dG) [AS-II-253-14],19.41%,–,27.09%,61.62%,53.28%,42%,–,67.26%,0.81%,65.18%
CGGCGGCGTGTT (antisense dC*dG*dG*dC*dG*dG*dC*dG*dT*dG*dT*dT) [AS-II-288-12],30.38%,30.09%,–,70.49%,67.57%,65.89%,52.1%,74.01%,12.67%,57.63%
CGGAGGGAGAGCATAGTGGA (antisense dC*dG*dG*dA*dG*dG*dG*dA*dG*dA*dG*dC*dA*dT*dA*dG*dT*dG*dG*dA) [AS-II-189-20],18.57%,70.52%,96.63%,76.57%,86.78%,57.86%,39.86%,73.12%,26.15%,76.67%
AGGACTGGTTGTGAGGTAGC (antisense dA*dG*dG*dA*dC*dT*dG*dG*dT*dT*dG*dT*dG*dA*dG*dG*dT*dA*dG*dC) [AS-II-1499-20],82.81%,81.17%,96.67%,87.8%,83.01%,77.5%,41.26%,77.28%,78.3%,87.56%
ATCGCCGCCGTG (antisense dA*dT*dC*dG*dC*dC*dG*dC*dC*dG*dT*dG) [AS-II-1775-12],85.54%,27.78%,–,63.55%,–,43.97%,48.6%,78.17%,18.6%,68.61%
GCGAGCGGGACACGGAGGGA (antisense dG*dC*dG*dA*dG*dC*dG*dG*dG*dA*dC*dA*dC*dG*dG*dA*dG*dG*dG*dA) [AS-II-201-20],96.2%,–,98.53%,90.55%,45.56%,59.32%,25.17%,65.08%,49.6%,90.87%
TGCCTCCGACCCTTCCCA (antisense dT*dG*dC*dC*dT*dC*dC*dG*dA*dC*dC*dC*dT*dT*dC*dC*dC*dA) [AS-II-16-18],25.74%,–,7.13%,81.1%,78.57%,75.89%,62.59%,89.48%,34.5%,68.7%
GGGAGAGCATAGTGGAGGCG (antisense dG*dG*dG*dA*dG*dA*dG*dC*dA*dT*dA*dG*dT*dG*dG*dA*dG*dG*dC*dG) [AS-II-185-20],21.94%,29.32%,94.52%,71.51%,–,53.44%,17.4%,4.37%,24.53%,19.38%
G*CC*TCCG*ACC*CTTC*CC*ATT*G (antisense dG*dCdC*dTdCdCdG*dAdCdC*dCdTdTdC*dCdC*dAdTdT*dG) [AS-II-13-20],18.99%,–,15.33%,32.3%,6.95%,24.11%,45.45%,52.38%,19.63%,19.85%
CGCGCTCCCGGCCC (antisense dC*dG*dC*dG*dC*dT*dC*dC*dC*dG*dG*dC*dC*dC) [AS-II-79-14],38.4%,38.89%,70.81%,79.17%,45.56%,70.81%,48.6%,85.32%,–,28.64%
